Values joined by “and” are separate entries in the source; they are usually repeats but may differ in a detail not shown here. Equal values may be shown once.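 All cell lines were grown in 96-well plates and treated with compound for 48 hours. GI50 = concentration required for 50% inhibition of growth. TGI is the concentration that stops growth completely.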
test system: MDA-MB-468 breast; assay: DTP human tumour cell line panel, 48 h

Compound	GI50	TGI
CN(C)C/C=C/C(=O)Nc1ccc(C(=O)N2CCC[C@@H](Nc3ncc(Cl)c(-c4c[nH]c5ccccc45)n3)C2)cc1	24.9 nM	0.0722 µM
COc1ccc2[nH]c(-c3ccccc3)cc2c1	47000 nM	> 100 µM
Cc1cc(=O)oc2cc(OCCn3c(C)nn(-c4ccc(Cl)cc4)c3=O)ccc12	2690 nM	57.6 µM
O=C(Nc1ccc(Cl)cc1)Nc1ccccc1CNc1nc(Nc2ccc(OCCN3CCCC3)cc2)ncc1Cl	998 nM	2.28 µM
CN(C)CCCN1c2ccccc2Sc2ccc(Cl)cc21	1670 nM and 1810 nM	3.54 µM and 4.62 µM
COc1ccc(-c2nc3c(c(=O)n2C(C)=O)C(c2ccc(Cl)cc2)c2sc4c(Cl)cccc4c2O3)cc1 (stereo not given)	234 nM	0.571 µM
C[C@@H]1C/C=C\C(=O)O[C@H](/C=C/C#C/C=C/C(C)(C)[C@@H](O)c2cccc(O)c2Br)[C@@H](C)/C=C/[C@H](C)C[C@H](OC(N)=O)C1	61.1 nM	17.8 µM
O=C(Cc1ccc(/C=C/C(=O)c2ncc[nH]2)cc1)Nc1ccc(C(F)(F)F)cc1	1770 nM	6.84 µM
O=c1oc2ccc(F)cc2c(=O)n1-c1ccc(Br)cc1F	1530 nM	5.49 µM
Cc1cc(NC(=O)NC(=O)c2ccccc2N(C)C)ccc1Oc1ncc(Br)cn1	490 nM	> 100 µM
COc1cc2cc(Oc3ccc(NC(=O)c4cccc5c4OCCO5)cc3)c(C)nc2cc1OC	2930 nM	48.7 µM
COc1cc2nnn3c4ncccc4c(N=O)c3c2cc1OC	156 nM	1.09 µM
Cn1cnc([N+](=O)[O-])c1Sc1nc(N)nc2nc[nH]c12	884 nM	6.11 µM
Cn1cc(CO)c2ccccc21	10500 nM	48.7 µM
O=C(CCN1CCCC1)Nc1ccc2c(Nc3ccccc3)c3ccccc3nc2c1	182 nM	1.6 µM
CCc1cccc(CC)c1/C=C/c1cncc(C(=O)NC)c1	4030 nM	20.6 µM
CCCNC(=O)CCC(C)[C@H]1CCC2C3C(C[C@H](OC(C)=O)[C@@]21C)[C@@]1(C)CCC2(C[C@H]1C[C@H]3OC(C)=O)OOC1(CCCCC1)OO2 (stereo not given in full)	1890 nM	6.77 µM
O=C1C=C(N2CCN(c3ccccn3)CC2)C(=O)c2c(O)ccc(O)c21	2750 nM	
COc1ccc2cc(-c3c(-c4ccncc4)nc(-c4ccc(S(C)=O)cc4C)n3C)ccc2c1 (stereo not given)	9070 nM	> 25 µM
O=C(/C=C/c1cn(-c2ccccc2)nc1-c1ccc([N+](=O)[O-])cc1)c1ccc(Cl)cc1	2910 nM	> 100 µM
COc1ccc(C(=O)C[C@]2(O)C(=O)Nc3c(Cl)ccc(Cl)c32)cc1	395 nM	> 67.1 µM
C1=C2CNCC3=Cc4ccc5ccccc5c4OC23Oc2c1ccc1ccccc21	2060 nM	7.55 µM

Compound	GI50	TGI
CCCn1cnc2c(SCc3ccccc3)nc(N)nc21	23600 nM	> 100 µM
Cc1n(Cc2ccc3ccccc3c2)c(Cl)c(Cl)[n+]1Cc1ccc2ccccc2c1	1090 nM	2.92 µM
COc1ccc(-c2cc(/C=C/C(=O)c3cc(OC)c(OC)c(OC)c3)[nH]n2)cc1OC	1330 nM	3.27 µM
Nc1ncnc2c1c(-c1ccc(Oc3ccccc3)cc1)nn2C[C@@H]1SSC[C@@H]1O	400 nM	2.19 µM
COc1ccccc1/C=C\C(=O)c1ccccc1	3970 nM	19.1 µM
Fc1c[c-]c(-c2ccccn2)c(F)c1.[CH3-].[Pt+2].c1ccc(P(C[PH+](c2ccccc2)c2ccccc2)c2ccccc2)cc1	325 nM	0.946 µM
CCNC(=O)Oc1ccc(/C(=C(/C)c2ccc(OC)cc2)c2ccc(OCCN3CCCCCC3)cc2)cc1	2050 nM	8.09 µM
O=C(Nc1ccccc1O)c1ccc(CNC(=O)c2ccsc2Nc2ccnc(C(F)(F)F)c2)cc1	1430 nM	3.53 µM
CCO/C=N/C1=C(C#N)C(c2ccc(Cl)cc2)c2sc3c(CC)cccc3c2O1 (stereo not given)	911 nM	11 µM
COc1cc(-n2cc(-c3cc(O)c(C/C=C(\C)CCC=C(C)C)c(O)c3)nn2)cc2c1O[C@]1(C)CC[C@@H](O)C(C)(C)[C@H]1C2	880 nM	4.89 µM
Nc1ccn([C@@H]2C(F)=C(CO)[C@@H](O)[C@H]2O)c(=O)n1	31200 nM	> 100 µM
CN(C)CCCC1(c2ccc(F)cc2)OCc2cc(-c3cncc4ccccc34)ccc21 (stereo not given)	1550 nM	3.19 µM
CCC(=O)c1cc([N+](=O)[O-])c(Br)s1	1920 nM	3.69 µM
CC[C@H](C)[C@H](NC(=O)[C@H]1CCCCN1C)C(=O)N(C)[C@H](C[C@@H](OC(C)=O)c1nc(C(=O)N[C@@H](Cc2ccccc2)C[C@H](C)C(=O)OC)cs1)C(C)C		4.45 µM
Oc1[nH]c2ccccc2c1/C=c1/cc2c(c(-c3ccc(C(F)(F)F)cc3)n1)=Nc1ccccc1-2	3820 nM	16.1 µM
COC(=O)[C@H](Cc1ccccc1)NC(=O)c1csc([C@@H](C[C@H](C(C)C)N(C)C(=O)[C@@H](NC(=O)[C@H]2CCCN2C)C2CC2)OC(C)=O)n1	153 nM	> 33.3 µM
c1ccc(CC(NCCNC(Cc2ccccc2)c2ccccc2)c2ccccc2)cc1 (stereo not given)	255 nM	0.745 µM
COc1ccc(NC(=O)c2sc3nc4c(cc3c2N)CCCC4)cc1	481 nM	96.4 µM
NC(=O)c1cc(I)ccc1NC(=O)COc1ccccc1	311 nM	
CCCCCCOc1ccc(C(=N)N(CCCC)CCCC)c2ccccc12	590 nM	2.01 µM
CN(C)C(=O)SC1=C(c2c(Cl)cccc2Cl)C(=O)c2ccccc21	1970 nM	4.15 µM
CC(=O)Oc1ccc(C2(c3ccc(OC(C)=O)cc3)C(=O)Nc3ccccc32)cc1	68.2 nM and 73.8 nM	40.8 µM and 91 µM

— PubChem BioAssay (NCI)
